Measured values published in patent US9708336B2, “Metallo-beta-lactamase inhibitors” (priority 2014, dated 2017).
Like-named read-outs stand apart in the source and are kept apart here.

Legend:
NDM-1 = NDM-1 (Klebsiella pneumoniae, UniProt C7C422); test: biochemical; format: biochemical; settings: read-out: NDM-1 IC50
IMP-1 = IMP-1 (Serratia marcescens, UniProt P52699); test: biochemical; format: biochemical; settings: read-out: IMP-1 IC50
[1] = system: Klebsiella pneumoniae expressing VIM-1 (IHMA599644); test: Antibiotic potentiation activity: synergistic concentration (MITC95) with imipenem, OD600 growth; format: cell-based; settings: for Klebsiella pneumoniae expressing VIM-1 (IHMA 599644) MITC95: concentration giving 95% inhibition of bacterial growth
Procedure: (§1) Antibiotic Potentiation Activity: Determination of Synergistic Concentration
(§2) The bacterial strains tested included the clinical strains Escherichia coli expressing NDM-1 (CLB30005, CLB30016), Serratia marcescens expressing IMP-1 (CL5741), and Klebsiella pneumoniae expressing VIM-1 (IHMA599644) Inhibitor activity was measured in the presence and absence of imipenem in a 384-well microplate.
(§3) The clinical strains CLB30016, CL5741 and IHMA599644 were grown on trypticase soy agar containing 5% sheep's blood. The clinical strain CLB30005 was grown on Mueller Hinton broth agar containing 8 ug/ml imipenem. The bacteria on agar plates were incubated at 35° C. with humidity overnight. The following day, individual colonies from each clinical strain were picked and resuspended in 5 ml saline to attain an OD600 of 0.14, 0.11, 0.15 and 0.13, for CLB30005, CLB30016, CL5741 and IHMA599644, respectively. These were further diluted 1:100 into 1.1×CAMHB and used to inoculate the test wells as described below.
(§4) Imipenem in 10 mM 3-(N-morpholino)propanesulfonic acid (MOPS, pH 7) was stored in single use aliquots at −80° C. […] On the day of the assay, 4 μl of antibiotic was added to 45 ul of bacteria followed by 1 μl of test compound and mixed by pipetting and with an orbital shaker. The concentration of antibiotic used in the assay was 4 μg/ml, or optionally 1 μg/ml. Microplates were covered and incubated at 35° C. for 22 hours to 24 hours. At the end of the incubation, absorbance was determined using a spectrophotometer.

[2] = system: Escherichia coli expressing NDM-1 (CLB30016); test: as above; format: cell-based; settings: for Escherichia coli expressing NDM-1 (CLB 30016) MITC95: concentration giving 95% inhibition of bacterial growth
Procedure: as §1, §2, §3, §4

[3] = system: Serratia marcescens expressing IMP-1 (CL5741); test: as above; format: cell-based; settings: for Serratia marcescens expressing IMP-1 (CL5741) MITC95: concentration giving 95% inhibition of bacterial growth
Procedure: as §1, §2, §3, §4

VIM-1 = VIM-1 (Pseudomonas aeruginosa (strain ATCC 15692 / DSM 22644 / CIP 104116 / JCM 14847 / LMG 12228 / 1C / PRS 101 / PAO1), UniProt A0A0F7KYQ8); test: Enzyme activity: determination of IC50, fluorescence assay with CCF2-FA substrate (VIM-1); format: biochemical; settings: read-out: VIM-1 IC50
[4] = NDM-1 enzyme, CCF2-FA substrate
[5] = IMP-1 enzyme, CCF2-FA substrate
[6] = Klebsiella pneumoniae IHMA599644 (VIM-1), 95% growth inhibition
[7] = (CLB30016, NDM-1), 95% growth inhibition
[8] = Serratia marcescens CL5741 (IMP-1), 95% growth inhibition
[9] = VIM-1 enzyme, CCF2-FA substrate
[10] = NDM-1 enzyme, CCF2-FA fluorescence assay
[11] = IMP-1 enzyme, CCF2-FA fluorescence assay
[12] = Klebsiella pneumoniae expressing VIM-1 (IHMA599644), 95% growth inhibition
[13] = Escherichia coli expressing NDM-1 (CLB30016), 95% growth inhibition
[14] = Serratia marcescens expressing IMP-1 (CL5741), 95% growth inhibition
[15] = VIM-1 enzyme, CCF2-FA fluorescence assay
[16] = fluorescence assay with CCF2-FA substrate
[17] = IHMA599644 (VIM-1), 95% inhibition of bacterial growth
[18] = CLB30016 (NDM-1), 95% inhibition of bacterial growth
[19] = CL5741 (IMP-1), 95% inhibition of bacterial growth

Chain of IMP-1 (P52699 whole entry, looked up): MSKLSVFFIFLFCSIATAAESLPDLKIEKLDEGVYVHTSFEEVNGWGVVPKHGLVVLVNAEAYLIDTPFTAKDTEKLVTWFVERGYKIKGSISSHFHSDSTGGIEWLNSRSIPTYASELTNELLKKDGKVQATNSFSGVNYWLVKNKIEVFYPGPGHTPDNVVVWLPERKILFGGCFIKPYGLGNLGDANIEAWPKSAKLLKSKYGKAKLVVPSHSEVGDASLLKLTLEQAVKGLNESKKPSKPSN
Chain of NDM-1 (C7C422 whole entry, looked up, species assumed): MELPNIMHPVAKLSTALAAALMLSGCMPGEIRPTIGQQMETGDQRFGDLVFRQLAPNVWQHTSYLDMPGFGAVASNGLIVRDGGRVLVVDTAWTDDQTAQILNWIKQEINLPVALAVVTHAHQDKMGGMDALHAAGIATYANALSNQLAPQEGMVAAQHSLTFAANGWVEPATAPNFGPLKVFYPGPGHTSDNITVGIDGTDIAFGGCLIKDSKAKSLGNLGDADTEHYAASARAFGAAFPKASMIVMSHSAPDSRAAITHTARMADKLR

NS(=O)(=O)c1cccc(-c2cccc3sc(N[C@H]4CC[C@H](N)CC4)nc23)c1-c1nnn[nH]1 [Example 641, 3-[2-[(4-aminocyclohexyl)amino]-1,3-benzothiazol-4-yl]-2-(1H-tetrazol-5-yl)benzenesulfonamide]
IC50 (NDM-1; [4]): 1.02 nM | IC50 (IMP-1; [5]): 26.5 nM | Klebsiella pneumoniae MITC95 [1, 6]: 25 µM | Escherichia coli MITC95 [2, 7]: 6.25 µM | Serratia marcescens MITC95 [3, 8]: 25 µM | IC50 (VIM-1; [9]): 4.46 nM

CN(C)CCCNCc1ccc(-c2cccc(S(N)(=O)=O)c2-c2nnn[nH]2)cc1 [Example 348, 4′-({[3-(dimethylamino)propyl]amino}methyl)-2-(1H-tetrazol-5-yl)biphenyl-3-sulfonamide]
IC50 (NDM-1; [10]): 25.4 nM | IC50 (IMP-1; [11]): 1330 nM | Klebsiella pneumoniae MITC95 [1, 12]: 75 µM | Escherichia coli MITC95 [2, 13]: 1.172 µM | Serratia marcescens MITC95 [3, 14]: 9.375 µM | IC50 (VIM-1; [15]): 851 nM

NS(=O)(=O)c1cccc(-c2cccc3c2OCC3=O)c1-c1nn[nH]n1 [Example 521, 3-(3-Oxo-2,3-dihydrobenzofuran-7-yl)-2-(2H-tetrazol-5-yl)benzenesulfonamide]
IC50 (NDM-1; [4]): 3.44 nM | IC50 (IMP-1; [5]): 559 nM | Klebsiella pneumoniae MITC95 [1, 6]: 12.5 µM | Escherichia coli MITC95 [2, 7]: 1.563 µM | Serratia marcescens MITC95 [3, 8]: 12.5 µM | IC50 (VIM-1; [9]): 19.7 nM

NCC1CCC(N2CCC(c3ccc(-c4ccc(C(F)(F)F)c(S(N)(=O)=O)c4-c4nnn[nH]4)cc3)CC2)CC1 (stereo not shown) [Example 787, 4′-{1-[4-(aminomethyl)cyclohexyl]piperidin-4-yl}-2-(1H-tetrazol-5-yl)-4-(trifluoromethyl)biphenyl-3-sulfonamide]
IC50 (NDM-1; [16]): 7.09 nM | IC50 (IMP-1; [16]): 1.71 nM | Klebsiella pneumoniae MITC95 [1, 17]: 25 µM | Escherichia coli MITC95 [2, 18]: 1.563 µM | Serratia marcescens MITC95 [3, 19]: 3.125 µM | IC50 (VIM-1; [16]): 8.1 nM

Nc1nc2ccc(-c3cccc(S(N)(=O)=O)c3-c3nn[nH]n3)cc2[nH]1 [Example 429]
IC50 (NDM-1; [10]): 2.58 nM | IC50 (IMP-1; [11]): 499 nM | Klebsiella pneumoniae MITC95 [1, 12]: 2.344 µM | Escherichia coli MITC95 [2, 13]: 0.0625 µM | Serratia marcescens MITC95 [3, 14]: 6.25 µM | IC50 (VIM-1; [15]): 30 nM

NS(=O)(=O)c1c(C(F)(F)F)ccc(C2CC2)c1-c1nnn[nH]1 [Example 489, 3-cyclopropyl-2-(1H-tetrazol-5-yl)-6-(trifluoromethyl)benzenesulfonamide]
IC50 (NDM-1; [10]): 19.6 nM | IC50 (IMP-1; [11]): 20.7 nM | Klebsiella pneumoniae MITC95 [1, 12]: 9.375 µM | Escherichia coli MITC95 [2, 13]: 1.563 µM | Serratia marcescens MITC95 [3, 14]: 0.7813 µM | IC50 (VIM-1; [15]): 9.83 nM

NS(=O)(=O)c1nccc(N2CCC(Cn3ccnc3)CC2)c1-c1nnn[nH]1 [Example 233, 4-[4-(1H-imidazol-1-ylmethyl)piperidin-1-yl]-3-(1H-tetrazol-5-yl)pyridine-2-sulfonamide]
IC50 (NDM-1; [16]): 60.9 nM | IC50 (IMP-1; [16]): 195 nM | Klebsiella pneumoniae expressing VIM-1 (IHMA 599644) MITC95 [1]: 37.5 µM | Escherichia coli expressing NDM-1 (CLB 30016) MITC95 [2]: 0.7813 µM | Serratia marcescens expressing IMP-1 (CL5741) MITC95 [3]: 6.25 µM | IC50 (VIM-1; [16]): 97.6 nM

NS(=O)(=O)c1c(C(F)(F)F)ccc(-c2ccc(N3CCC(O)CC3)cc2)c1-c1nnn[nH]1 [Example 740, 4′-(4-hydroxypiperidin-1-yl)-2-(1H-tetrazol-5-yl)-4-(trifluoromethyl)biphenyl-3-sulfonamide]
IC50 (NDM-1; [4]): 0.229 nM | IC50 (IMP-1; [5]): 0.456 nM | Klebsiella pneumoniae MITC95 [1, 6]: 50 µM | Escherichia coli MITC95 [2, 7]: 6.25 µM | Serratia marcescens MITC95 [3, 8]: 6.25 µM | IC50 (VIM-1; [9]): 1.15 nM

NS(=O)(=O)c1c(C(F)(F)F)ccc(C2CCC3(CCNCC3)CC2)c1-c1nnn[nH]1 [Example 833, 3-(3-azaspiro[5.5]undecan-9-yl)-2-(1H-tetrazol-5-yl)-6-(trifluoromethyl)benzenesulfonamide]
IC50 (NDM-1; [16]): 0.74 nM | IC50 (IMP-1; [16]): 4.31 nM | Klebsiella pneumoniae MITC95 [1, 17]: 12.5 µM | Escherichia coli MITC95 [2, 18]: 1.563 µM | Serratia marcescens MITC95 [3, 19]: 3.125 µM | IC50 (VIM-1; [16]): 3.33 nM

CNCC(C)NCc1ccc(-c2cccc(S(N)(=O)=O)c2-c2nn[nH]n2)cc1 (stereo not shown) [Example 359, 4′-({[1-methyl-2-(methylamino)ethyl]amino}methyl)-2-(2H-tetrazol-5-yl)biphenyl-3-sulfonamide]
IC50 (NDM-1; [10]): 13 nM | IC50 (IMP-1; [11]): 104 nM | Klebsiella pneumoniae MITC95 [1, 12]: >200 µM | Escherichia coli MITC95 [2, 13]: 4.688 µM | Serratia marcescens MITC95 [3, 14]: 3.125 µM | IC50 (VIM-1; [15]): 1870 nM

NC1CCC(c2cccc(S(N)(=O)=O)c2-c2nn[nH]n2)CC1 (stereo not shown) [Example 168, 3-(4-Aminocyclohexyl)-2-(2H-tetrazol-5-yl)benzenesulfonamide]
IC50 (NDM-1; [16]): 39.4 nM | IC50 (IMP-1; [16]): 865 nM | Klebsiella pneumoniae expressing VIM-1 (IHMA 599644) MITC95 [1]: 2.172 µM | Escherichia coli expressing NDM-1 (CLB 30016) MITC95 [2]: 0.25 µM | Serratia marcescens expressing IMP-1 (CL5741) MITC95 [3]: 6.25 µM | IC50 (VIM-1; [16]): 50.3 nM

Nc1nccc2cc(-c3ccc(C(F)(F)F)c(S(N)(=O)=O)c3-c3nnn[nH]3)ccc12 [Example 751, 3-(1-aminoisoquinolin-6-yl)-2-(1H-tetrazol-5-yl)-6-(trifluoromethyl)benzenesulfon-amide]
IC50 (NDM-1; [16]): 0.962 nM | IC50 (IMP-1; [16]): 5.63 nM | Klebsiella pneumoniae MITC95 [1, 17]: 3.125 µM | Escherichia coli MITC95 [2, 18]: 0.7813 µM | Serratia marcescens MITC95 [3, 19]: 3.125 µM | IC50 (VIM-1; [16]): 0.108 nM

C[N+]1(C)CCC(Cc2ccc(-c3ccc(C4CNC4)cc3)c(-c3nn[nH]n3)c2S(N)(=O)=O)CC1 [Example 605, 3-[4-(azetidin-3-yl)phenyl]-6-[(1,1-dimethylpiperidin-1-ium-4-yl)methyl]-2-(2H-tetrazol-5-yl)benzenesulfonamide]
IC50 (IMP-1; [5]): 160 nM | Klebsiella pneumoniae MITC95 [1, 6]: 3.125 µM | Escherichia coli MITC95 [2, 7]: 6.25 µM | Serratia marcescens MITC95 [3, 8]: 6.25 µM | IC50 (VIM-1; [9]): 3.89 nM

NS(=O)(=O)c1c(CCC2CCNCC2)ccc(-c2ccnc3ccccc23)c1-c1nn[nH]n1 [Example 452, 6-(2-(piperidin-4-yl)ethyl)-3-(quinolin-4-yl)-2-(2H-tetrazol-5-yl)benzenesulfonamide]
Klebsiella pneumoniae MITC95 [1, 12]: 4.688 µM | Escherichia coli MITC95 [2, 13]: 1.563 µM | Serratia marcescens MITC95 [3, 14]: 9.375 µM | IC50 (VIM-1; [15]): 1.98 nM

NCc1ccc(-c2ccc(Br)c(S(N)(=O)=O)c2-c2nn[nH]n2)cc1 [Example 271, 4′-(aminomethyl)-4-bromo-2-(2H-tetrazol-5-yl)-[1,1′-biphenyl]-3-sulfonamide]
Klebsiella pneumoniae MITC95 [1, 12]: 2.344 µM | Escherichia coli MITC95 [2, 13]: 0.3906 µM | Serratia marcescens MITC95 [3, 14]: 0.5859 µM | IC50 (VIM-1; [15]): 11.7 nM

Cn1cncc1CN1CCC(c2ccc(-c3cccc(S(N)(=O)=O)c3-c3nnn[nH]3)cc2)CC1 [Example 620, 3-[4-[1-[(3-methylimidazol-4-yl)methyl]-4-piperidyl]phenyl]-2-(1H-tetrazol-5-yl)benzenesulfonamide]
Klebsiella pneumoniae MITC95 [1, 6]: >200 µM | Escherichia coli MITC95 [2, 7]: 7.813 µM | Serratia marcescens MITC95 [3, 8]: 2.344 µM | IC50 (VIM-1; [9]): 1030 nM

C[N+]1(C)CCc2c(cccc2-c2ccc(C(F)(F)F)c(S(N)(=O)=O)c2-c2nn[nH]n2)C1 [Example 520, 2,2-Dimethyl-5-(3-sulfamoyl-2-(2H-tetrazol-5-yl)-4-(trifluoromethyl)phenyl)-1,2,3,4-tetrahydroisoquinolin-2-ium]
Klebsiella pneumoniae MITC95 [1, 6]: 3.125 µM | Escherichia coli MITC95 [2, 7]: 3.125 µM | Serratia marcescens MITC95 [3, 8]: 3.125 µM | IC50 (VIM-1; [9]): 1.96 nM

Cc1nc(N)ccc1-c1ccc(C(F)(F)F)c(S(N)(=O)=O)c1-c1nn[nH]n1 [Example 555, 3-(6-amino-2-methyl-3-pyridyl)-2-(2H-tetrazol-5-yl)-6-(trifluoromethyl)benzenesulfonamide]
Klebsiella pneumoniae MITC95 [1, 6]: 3.125 µM | Escherichia coli MITC95 [2, 7]: 0.5859 µM | Serratia marcescens MITC95 [3, 8]: 6.25 µM | IC50 (VIM-1; [9]): 0.177 nM
